# US9302985B2, “Benzyl sulfonamide derivatives as RORc modulators” (Genentech, Inc., priority 2012, dated 2016)
# Molecular target: RORc ligand binding domain (Homo sapiens (Human), UniProt P51449)
# Assay: In vitro RORc Ligand Binding Assay
# Conditions: displacement of 6 nM 25-[3H]hydroxycholesterol; 0.6 ug/mL RORc receptor; 3 h at 25° C.
# Procedure: In vitro RORc Ligand Binding Assay
# This assay was used to determine a compound's potency in inhibiting activity of RORc by determining, Kiapp, IC50, or percent inhibition values.
# On day of the assay, 100 uL of 0.05% CHAPS (in deionized H2O) was added to all wells of the GFB Unifilter plate and allowed soak for 1 h. A wash buffer of 50 mM HEPES (pH 7.4), 150 mM NaCl, and 5 mM MgCl2 was prepared to wash the filter plate. To prepare an assay buffer, BSA was added to the wash buffer to reach 0.01% and DTT was added to reach 1 mM.
# The 20× compound stocks were diluted in DMSO with Assay Buffer 4-fold to reach 5× the final test concentration in 25% DMSO (10 uL compound+30 uL Assay Buffer). Solutions were mixed by aspiration several times with a pipette set on 50 uL volume. For the assay, 10 uL of 5× compound stock solutions in 25% DMSO were added to the assay plate in duplicate.
# For 25-hydroxycholesterol in 25% DMSO/75% Assay Buffer; 10 uL per well was used for NSB samples. Wells for Total Binding and No Receptor sample determination contained 10 uL of 25% DMSO/75% Assay Buffer per well.
# Add 20 uL to all wells to reach 6 nM final concentration in the assay.
# Stock receptor solution was diluted in assay buffer to obtain 1.5 ug/mL in Assay Buffer. 20 uL was added to all wells. For No Receptor samples, 20 uL Assay Buffer was substituted for receptor solution.
# Assay plates were 96-well polypropylene V-bottom plates. 10 uL of 5× compound in 25% DMSO/75% Assay Buffer was added to Test wells. 10 uL of 25% DMSO/75% Assay Buffer was added to Total Binding or No Receptor wells. 10 uL of 5 uM 25-hydroxycholesterol in 25% DMSO/75% Assay Buffer was added to NSB wells. […] 20 uL of 1.5 ug/mL RORc receptor was added to wells (or 40 uL Assay Buffer to No R wells). Following addition to the wells, the plates were incubated 3 h at 25° C.
# Using a Packard Filtermate Harvester, the filter plate were washed 4 times following transfer of the incubated samples. Plates were dry-filtered completely (2 h at 50° C. or overnight at room temperature). 50 uL Microscint 0 was added to all wells and read on Topcount protocol Inverted.
# Final concentrations were as follows: 50 mM HEPES buffer (pH 7.4); 150 mM NaCl; 1 mM DTT; 5 mM MgCl2; 0.01% BSA; 5% DMSO; 0.6 ug/mL RORc receptor; 6 nM 25-[^3H]hydroxycholesterol. For NSB wells, 1 uM 25-hydroxycholesterol was also present.
# Chain of RORc ligand binding domain (P51449 269-508, species assumed): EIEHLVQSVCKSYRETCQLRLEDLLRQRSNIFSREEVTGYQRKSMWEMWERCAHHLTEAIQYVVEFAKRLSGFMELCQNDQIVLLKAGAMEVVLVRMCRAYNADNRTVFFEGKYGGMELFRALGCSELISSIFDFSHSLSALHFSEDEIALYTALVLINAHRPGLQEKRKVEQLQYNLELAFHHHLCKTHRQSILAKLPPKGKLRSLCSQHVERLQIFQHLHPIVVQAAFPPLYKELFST
row,SMILES,IC50
1,"CC(C)CN(c1cccc(Cl)c1)S(=O)(=O)c1ccc(Oc2ccc(S(C)(=O)=O)cc2)cc1 [Compound 5, N-(3-Chloro-phenyl)-N-isobutyl-4-(4-mehanesulfonyl-phenoxy)-benzenesulfonamide]",138 nM
2,"CC(C)CN(Cc1ccccc1)S(=O)(=O)c1ccc(-c2ccc(C(N)=O)cc2)cc1 [Compound 7, 4′-(Benzyl-isobutyl-sulfamoyl)-biphenyl-4-carboxylic acid amide]",124 nM

# Now those with a lower IC50, led by results:
row,IC50,SMILES
1,103 nM,"CC(C)CN(c1cccc(Cl)c1)S(=O)(=O)c1ccc(-c2ccc(S(N)(=O)=O)cc2)cc1 [Compound 14, Biphenyl-4,4′-disulfonic acid 4′-amide 4-[(3-chloro-phenyl)-isobutyl-amide]]"
2,39 nM,"CC(C)CN(c1ccccc1Cl)S(=O)(=O)c1ccc(-c2ccc(C(N)=O)cc2)cc1 [Compound 16, 4′-[(2-Chloro-phenyl)-isobutyl-sulfamoyl]-biphenyl-4-carboxylic acid amide]"
3,38 nM,"CC(C)CN(c1cccc(Cl)c1)S(=O)(=O)c1ccc(-c2ccc(C(N)=O)cc2)cc1 [Compound 15, 4′-[(3-Chloro-phenyl)-isobutyl-sulfamoyl]-biphenyl-4-carboxylic acid amide]"
